Experimental findings from US9737535B2, “Methods for treating cancer using TOR kinase inhibitor combination therapy comprising administering substituted pyrazino[2,3-b]pyrazines” (Signal Pharmaceuticals, LLC, priority 2014, dated 2017) are described below.

Assay in all cases: Anti-proliferation assay (ATPLite), Chalice synergy score
What all share (type): cell-based

Assay [1] concerns HCC-1187. Also noted: scale not given here. Conditions: Compound 1 in combination with the named second active agent, 72 h, mean of n = 3 experiments in triplicate. The text has this:
(§1) Cells were thawed from a liquid nitrogen preserved state.
(§2) The calculation for synergy score is provided below.
(§3) If T≧V0:100*[1−(T−V0)/(V−V0)]

Assay [2] concerns HCC-1500. Also on record: scale not given here. Conditions: Compound 1 in combination with the named second active agent, 72 h, mean of n = 3 experiments in triplicate.
Source text: as §1, §2, §3

For assay [3], the system named is BT-20. Also noted: scale not given here. Conditions: Compound 1 in combination with the named second active agent, 72 h, mean of n = 3 experiments in triplicate.
Source text: as §1, §2, §3

The subject of assay [4] is BT-549. Conditions: Compound 1 in combination with the named second active agent, 72 h, mean of n = 3 experiments in triplicate.
Source text: as §1, §2, §3

The test system of assay [5] is HCC-1806. Conditions: Compound 1 in combination with the named second active agent, 72 h, mean of n = 3 experiments in triplicate.
Source text: as §1, §2, §3

Assay [6] deals with MDA-MB-468. Conditions: Compound 1 in combination with second active agent, mean self-cross + 2σ threshold 4.66.
Source text: as §1, §2, §3

Assay [7] concerns BT-474. To be noted: Compound 1 in combination with the named second active agent, 72 h, mean of n = 3 experiments in triplicate.
Source text: as §1, §2, §3

Assay [8] deals with HCC-1428. Conditions: Compound 1 in combination with the named second active agent, 72 h, mean of n = 3 experiments in triplicate.
Source text: as §1, §2, §3

The subject of assay [9] is MDA-MB-157. Conditions: Compound 1 in combination with second active agent, mean self-cross + 2σ threshold 4.68.
Source text: as §1, §2, §3

In assay [10] the test system is HCC70. Conditions: Compound 1 in combination with second active agent; HCC-70; mean self-cross + 2σ threshold 3.45.
Source text: as §1, §2, §3

The subject of assay [11] is MDA-MB-436. To be noted: Compound 1 in combination with second active agent, mean self-cross + 2σ threshold 1.91.
Source text: as §1, §2, §3

Assay [12] concerns MDA-MB-231. To be noted: Compound 1 in combination with second active agent, mean self-cross + 2σ threshold 2.61.
Source text: as §1, §2, §3

Assay [13] relates to MCF7. Conditions: Compound 1 in combination with second active agent, mean self-cross + 2σ threshold 3.07.
Source text: as §1, §2, §3

For assay [14], the system named is Hs-578-T. Conditions: Compound 1 in combination with second active agent, mean self-cross + 2σ threshold 4.09.
Source text: as §1, §2, §3

Assay [15] deals with HCC-1937. Conditions: Compound 1 in combination with the named second active agent, 72 h, mean of n = 3 experiments in triplicate.
Source text: as §1, §2, §3

Take `C=CC(=O)Nc1ccc2ncnc(Nc3ccc(OCc4cccc(F)c4)c(Cl)c3)c2c1` [AST-1306]: the Synergy score in assay [1] turned out to be 2.17; in [2], 0.96; in [3], 7.60; in [4] it was 4.88; in [5], 5.59; in assay [6], 5.65. In addition, the Synergy score in [7] was 4.02; in assay [8] it was 2.69; in assay [9] it was 3.02; in [10], 7.50; in assay [11] it was 2.08; in assay [12], 4.37. Moreover, the Synergy score in assay [13] turned out to be 4.34; in assay [14] it was 4.43; in assay [15], 6.39.
Take `NC(=O)Nc1cc(-c2cccc(F)c2)sc1C(=O)N[C@H]1CCCNC1` [AZD7762]: the Synergy score in assay [1] is given as 1.65; in [2] it was 3.02; in [3], 3.92; in [4], 0.39; in [5] it was 0.32; in [6] it was 0.94. Also, the Synergy score was determined as 1.21 in [7]; 2.58 in assay [8]; 3.09 in assay [9]; 4.61 in assay [10]; 0.93 in assay [11]; 3.66 in assay [12]. For the same compound, the Synergy score was determined as 0.08 in [13], 8.16 in [14] and 4.44 in assay [15].
As to `NC1(c2ccc(-c3nc4ccn5c(=O)[nH]nc5c4cc3-c3ccccc3)cc2)CCC1` [MK-2206], the Synergy score in assay [1] came out at 10.60; in assay [2] it was 2.02; in assay [3] it was 13.10; in [4], 9.17; in [5], 7.33; in [6], 10.80. Also, the Synergy score in assay [7] came to 8.24; in assay [8], 4.09; in assay [9], 9.00; in [10], 13.30; in [11], 5.55; in assay [12] it was 3.39. Further, the Synergy score was found to be 12.10 in assay [13], 12.60 in [14] and 11.40 in assay [15].
Take `CS(=O)(=O)N1CCN(Cc2cc3nc(-c4cccc5[nH]ncc45)nc(N4CCOCC4)c3s2)CC1` [GDC-0941]: the Synergy score in assay [1] was determined as 5.18; in assay [2], 1.45; in [3], 6.56; in assay [4], 4.39; in assay [5] it was 6.16; in assay [6] it was 3.21. Also, the Synergy score in assay [7] is 5.04; in [8], 1.90; in assay [9], 5.60; in assay [10] it was 6.42; in assay [11], 1.25; in [12] it was 1.76. Further, the results for the Synergy score in [13], in [14] and in [15] were 5.22, 7.23 and 4.39, respectively.
On to `O=C(NOC[C@H](O)CO)c1ccc(F)c(F)c1Nc1ccc(I)cc1F` [PD0325901], for which the Synergy score in assay [1] is on record as 7.89; in assay [2] it was 3.58; in [3] it was 6.34; in assay [4], 1.62; in assay [5] it was 3.78; in [6] it was 5.84. Also, the Synergy score is listed as 1.50 in assay [7]; 4.69 in assay [8]; 8.05 in [9]; 14.70 in assay [10]; 4.20 in assay [11]; 9.62 in assay [12]. Also, the Synergy score in [13] was 4.62; in assay [14] it was 3.88; in assay [15], 3.54.
As for `C[C@]12CC[C@@H]3c4ccc(O)cc4C[C@@H](CCCCCCCCC[S+]([O-])CCCC(F)(F)C(F)(F)F)[C@H]3[C@@H]1CC[C@@H]2O` (stereo partly drawn) [Fulvestrant], the Synergy score in assay [1] is listed as 2.16; in assay [2], 5.15; in assay [3] it was 1.39; in assay [4] it was 1.25; in [5] it was 1.30; in [6], 0.41. In addition, the Synergy score came out at 1.37 in assay [7]; 1.09 in assay [8]; 0.42 in [9]; 1.50 in [10]; 0.74 in assay [11]; 0.77 in assay [12]. For the same compound, the Synergy score was found to be 2.45 in assay [13], 2.10 in assay [14] and 1.98 in assay [15].
Take `Clc1ccc(C2(c3ccc(-c4cn[nH]c4)cc3)CCNCC2)cc1` [AT7867]: the Synergy score in assay [1] worked out at 4.19; in assay [2], 2.00; in [3] it was 3.07; in [4], 4.50; in [5], 2.04; in [6], 3.60. Further, the Synergy score in assay [7] is recorded as 1.83; in [8], 1.42; in assay [9], 3.19; in [10] it was 4.28; in assay [11], 1.95; in assay [12], 3.58. Further, the Synergy score in assay [13] is listed as 1.39; in assay [14], 5.24; in [15], 1.72.
As for `Cc1ccc(S(=O)(=O)/C=C/C#N)cc1` [Bay 11-7082], the Synergy score in [1] was found to be 0.51; in [2], 0.52; in [3], 0.00; in [4], 1.16; in assay [5] it was 1.01; in assay [6] it was 1.89. Besides, the Synergy score worked out at 0.93 in assay [7]; 1.53 in assay [8]; 3.65 in assay [9]; 1.13 in assay [10]; 1.24 in [11]; 0.61 in [12]. Besides, the values for the Synergy score in [13], in [14] and in assay [15] were 0.02, 1.51 and 1.23, respectively.
Turning to `CO[C@H]1/C=C\C=C(/C)C(=O)NC2=CC(=O)C(NCCN(C)C)=C(C[C@@H](C)C[C@H](OC)[C@H](O)[C@@H](C)/C=C(\C)[C@@H]1OC(N)=O)C2=O` [Compound 17-DMAG], the Synergy score in [1] was 0.33; in assay [2], 0.99; in [3], 5.94; in assay [4], 0.01; in assay [5], 1.40; in [6] it was 7.72. Moreover, the Synergy score in assay [7] was 2.24; in assay [8] it was 2.46; in [9], 6.09; in assay [10], 11.10; in assay [11], 0.61; in [12], 1.00. Further, the Synergy score in [13] was 0.13; in [14], 0.45; in assay [15], 1.70.
